{
  "source": "patent US20250345350A1",
  "about": "“TREATING PAIN ASSOCIATED WITH CENTRAL SENSITIZATION” (Medicon Pharmaceuticals, Inc., priority 2022, published 2025)",
  "key": {"[1]": {"experiment": "Preliminary in vivo evidence, topical PS hydrogel, PHN (Example 19)"}, "[2]": {"tested_on": "paclitaxel-induced central sensitization in C57/BL/6J mice", "experiment": "Cold allodynia (acetone test), paclitaxel model (Example 3)", "format": "in vivo, mouse", "details": "PS 5% for 15 days; day 15", "description": "To determine the outcome of treatment, assessment of mechanical allodynia was performed. […] Both methods of assessing allodynia are described in Toma W, et al. Neuropharmacology 2017; 117:305-15. Mechanical and cold allodynia are determined at least one day apart in the same animal.\nThe acetone test was used. Briefly, acetone was applied onto the plantar surface of each hind paw. The time each mouse spent licking, lifting, and/or shaking the hind paw recorded over 60 seconds was the score for cold allodynia. Measurements were performed on day-8 (before the first paclitaxel injection), the day of starting treatment (day 0) and then on day 15."}, "[3]": {"experiment": "Preliminary in vivo evidence, topical PS hydrogel, migraine pain (Example 12)"}, "COX-2": {"target": "T1, COX-2 (Homo sapiens, UniProt P35354)", "T1 sequence (P35354 18-604)": "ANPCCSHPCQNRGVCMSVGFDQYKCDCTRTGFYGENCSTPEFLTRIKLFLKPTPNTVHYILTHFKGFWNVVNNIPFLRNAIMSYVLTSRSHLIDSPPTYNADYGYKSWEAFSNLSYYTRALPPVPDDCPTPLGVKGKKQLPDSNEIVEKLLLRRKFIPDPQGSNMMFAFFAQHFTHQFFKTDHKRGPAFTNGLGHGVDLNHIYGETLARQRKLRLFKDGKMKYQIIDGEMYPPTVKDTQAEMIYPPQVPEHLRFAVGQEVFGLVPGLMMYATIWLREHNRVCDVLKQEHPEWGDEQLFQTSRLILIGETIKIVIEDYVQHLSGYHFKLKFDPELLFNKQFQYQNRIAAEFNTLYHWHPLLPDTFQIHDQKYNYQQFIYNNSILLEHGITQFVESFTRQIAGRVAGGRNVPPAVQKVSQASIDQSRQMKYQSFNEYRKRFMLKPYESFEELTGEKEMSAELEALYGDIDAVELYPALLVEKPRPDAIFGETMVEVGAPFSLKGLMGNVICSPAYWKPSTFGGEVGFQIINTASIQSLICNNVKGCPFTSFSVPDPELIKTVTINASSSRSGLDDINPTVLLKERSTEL", "details": "background statement; cited from earlier work"}},
  "data": [
    {"molecule": "CCOP(=O)(OCC)OCCCCOC(=O)CC1=C(C)/C(=C/c2ccc([S+](C)[O-])cc2)c2ccc(F)cc21", "note": "(stereo not shown) [PS, phosphosulindac]", "values": [
      {"measurement": "analgesic effect on neuropathic pain associated with PHN", "setting": "[1]", "value": "striking analgesic effect"},
      {"measurement": "cold allodynia score (acetone test)", "setting": "[2]", "value": "3.1 ± 0.4", "unit": "s"},
      {"measurement": "analgesic effect on migraine pain", "setting": "[3]", "value": "striking analgesic effect"},
      {"measurement": "inhibition of COX-2", "setting": "COX-2", "value": "does not inhibit"}
    ]}
  ]
}
